From patent publication US20200282101A1, “BIODEGRADABLE TUMOR SEALANT” (MediGear International Corporation, priority 2015, published 2020)

Tests used:
[1] = Viscosity measurement of the synthesized compound; assay type: physicochemical; conditions: shear rate: 92 1/s
From the text: The results of measuring the ^1H-NMR spectrum and viscosity of the resulting compound were as shown below.
Viscosity: 0.48 Pa·s (shear rate: 92 1/s)

[2] = Formation of gelatinous composition on mixing with physiological saline; assay type: physicochemical; conditions: 50% by weight or more of physiological saline, separated saline removed
Description: An aqueous medium in the form of a 50% by weight or more of physiological saline was added to mono-O-(5,9,13-trimethyltetradeca-4-enoyl)glycerol followed by carrying out a mixing procedure and removing the separated physiological saline.
Mono-O-(5,9,13-trimethyltetradeca-4-enoyl)glycerol and a contrast agent in the form of Lipiodol were mixed at mixing ratios of 10:5, 70:30, 10:3, 80:20, 10:2, 90:10 and. 10:1. An aqueous medium in the form of 50% by weight or more of physiological saline was added to each mixture followed by carrying out a mixing procedure and removing the separated physiological saline to respectively obtain mixtures.

[3] = Liquid crystal structure analysis by small-angle X-ray scattering (SAXS); assay type: physicochemical; conditions: atmospheric pressure
Description: The liquid crystal structure of the aforementioned gelatinous composition was analyzed by small-angle X-ray scattering (SAXS) using the NANO Viewer nanoscale X-ray structural evaluation system (Rigaku). As a result of measuring the aforementioned gelatinous composition packed into pinhole slits under atmospheric pressure, a graph of SAXS intensity distribution (FIG. 3(1)) and peak search results (FIG. 3(2)) were obtained.
The liquid crystal structures of the aforementioned gelatinous compositions were analyzed by small-angle X-ray scattering (SAXS) using the SmartLab high-luminance in-plane X-ray diffraction system (Rigaku). The aforementioned gelatinous composition packed into pinhole slits were measured under atmospheric pressure.
Liquid crystal structure of the aforementioned emulsion was analyzed by small-angle X-ray scattering (SAXS) using the NANO Viewer nanoscale X-ray structural evaluation system (Rigaku). As a result of introducing the emulsion into a capillary tube under atmospheric pressure and measuring with the system at reduced pressure (although the sample per se was at atmospheric pressure), a graph of SAXS intensity distribution (FIG. 5(1)) and peak search results (FIG. 5(2)) were obtained.
The aforementioned emulsion was measured by SAXS in the same manner as Example 4. […]

[4] = Stability of liquid crystal gelatinous composition in human serum; assay type: in vitro ADME
Description: Approximately 100 μL of mono-O-(5,9,13-trimethyltetradeca-4-enoyl)glycerol or approximately 100 μL each of mixed solutions of mono-O-(5,9,13-trimethyltetradeca-4-enoyl)glycerol and Lipiodol at a weight ratio of 10:1, 10:2 or 10:3 were respectively added to vials containing 2 mL of human serum (Human OTC Serum, Access Biologicals). After gently shaking each vial to cause the formation of a gelatinous composition, the vials were allowed to stand undisturbed in a water bath at 37° C. followed by observing immediately thereafter, 10 hours later and 24 hours later.
FIG. 13 depicts captured images indicating changes over time in samples consisting of approximately 100 μL of mono-O-(5,9,13-trimethyltetradeca-4-enoyl)glycerol.

Structure (SMILES): CC(=CCCC(=O)OCC(O)CO)CCCC(C)CCCC(C)C (stereo not drawn) [Example 1, Mono-O-(5,9,13-trimethyltetradeca-4-enoyl)glycerol]
- Viscosity [1]: 0.48 Pa·s
- Appearance of composition after mixing with physiological saline [2]: cloudy to colorless, clear gel
- Liquid crystal structure (SAXS) [3]: inverse hexagonal liquid crystal
- Change of human serum with passage of time ([4]; approx. 100 μL in 2 mL human serum, 37° C., up to 24 hours): gradually became cloudy
- Change of gelatinous composition in distilled water instead of human serum ([4]; distilled water, within 24 hours): no change in the gelatinous composition
- Observation in human serum 10 hours after addition ([4]; human serum, 37° C., 10 hours): Cloudiness can be seen to have progressed
- Observation in human serum 24 hours after addition ([4]; human serum, 37° C., 24 hours): Cloudiness had progressed even further, although the gelatinous composition remained
- Main eluted components by TLC analysis ([4]; human serum, 37° C., 24 hours after addition): mono-O-(5,9,13-trimethyltetradeca-4-enoyl)glycerol and (5,9,13-trimethyl-4-tetradecanoic)carboxylate obtained as a result of hydrolysis
- Observation in human serum immediately after addition ([4]; human serum, 37° C., immediately after addition): a gelatinous composition formed and the human serum remained clear
